Source: the NIST ThermoML archive (doi:10.1021/je034177v)
Numbers after ± are expanded uncertainties.

Assay: xn = mol fraction of the nth substance listed
Details: 101 kPa, Liquid; for speed of sound: Pulse-echo method; for mass density: Vibrating tube method

ClCCCCCCl [1,5-dichloropentane] + CCCCCCCCCCCC
Details | mass density [kg/m3] | speed of sound [m/s]
278.15 K, x1 = 0.05237 | 769.83 ± 0.35 | 1353.9 ± 1.1
278.15 K, x1 = 0.1014 | 780 ± 0.35 | 1351.3 ± 1.1
278.15 K, x1 = 0.2008 | 802.34 ± 0.36 | 1347.1 ± 1.1
278.15 K, x1 = 0.3039 | 827.99 ± 0.37 | 1344.1 ± 1.1
278.15 K, x1 = 0.3945 | 852.98 ± 0.38 | 1342.4 ± 1.1
278.15 K, x1 = 0.4983 | 884.91 ± 0.4 | 1342.1 ± 1.1
278.15 K, x1 = 0.6014 | 920.97 ± 0.42 | 1343.6 ± 1.1
278.15 K, x1 = 0.6987 | 959.17 ± 0.44 | 1347.1 ± 1.1
278.15 K, x1 = 0.7975 | 1003.24 ± 0.46 | 1353.4 ± 1.1
278.15 K, x1 = 0.9021 | 1056.96 ± 0.49 | 1363.5 ± 1.1
278.15 K, x1 = 0.9497 | 1084.25 ± 0.51 | 1369.5 ± 1.1
278.15 K, x1 = 1 | 1115.28 ± 0.52 | 1376.6 ± 1.1
283.15 K, x1 = 0.05237 | 766.19 ± 0.35 | 1334.4 ± 1.1
283.15 K, x1 = 0.1014 | 776.32 ± 0.35 | 1331.9 ± 1.1
283.15 K, x1 = 0.2008 | 798.55 ± 0.36 | 1327.8 ± 1.1
283.15 K, x1 = 0.3039 | 824.08 ± 0.37 | 1324.9 ± 1.1
283.15 K, x1 = 0.3945 | 848.97 ± 0.38 | 1323.6 ± 1.1
283.15 K, x1 = 0.4983 | 880.76 ± 0.4 | 1323.4 ± 1.1
283.15 K, x1 = 0.6014 | 916.68 ± 0.42 | 1325.1 ± 1.1
283.15 K, x1 = 0.6987 | 954.72 ± 0.44 | 1328.9 ± 1.1
283.15 K, x1 = 0.7975 | 998.63 ± 0.46 | 1335.3 ± 1.1
283.15 K, x1 = 0.9021 | 1052.15 ± 0.49 | 1345.6 ± 1.1
283.15 K, x1 = 0.9497 | 1079.35 ± 0.5 | 1351.7 ± 1.1
283.15 K, x1 = 1 | 1110.26 ± 0.52 | 1358.9 ± 1.1
288.15 K, x1 = 0.05237 | 762.54 ± 0.35 | 1314.6 ± 1
288.15 K, x1 = 0.1014 | 772.61 ± 0.35 | 1312.2 ± 1.1
288.15 K, x1 = 0.2008 | 794.74 ± 0.36 | 1308.2 ± 1.1
288.15 K, x1 = 0.3039 | 820.16 ± 0.37 | 1305.7 ± 1.1
288.15 K, x1 = 0.3945 | 844.93 ± 0.38 | 1304.4 ± 1.1
288.15 K, x1 = 0.4983 | 876.58 ± 0.4 | 1304.5 ± 1.1
288.15 K, x1 = 0.6014 | 912.36 ± 0.41 | 1306.4 ± 1.1
288.15 K, x1 = 0.6987 | 950.25 ± 0.43 | 1310.3 ± 1.1
288.15 K, x1 = 0.7975 | 993.99 ± 0.46 | 1317 ± 1.1
288.15 K, x1 = 0.9021 | 1047.3 ± 0.49 | 1327.5 ± 1.1
288.15 K, x1 = 0.9497 | 1074.4 ± 0.5 | 1333.7 ± 1.1
288.15 K, x1 = 1 | 1105.2 ± 0.52 | 1341 ± 1.1
293.15 K, x1 = 0.05237 | 758.89 ± 0.34 | 1295.1 ± 1
293.15 K, x1 = 0.1014 | 768.91 ± 0.35 | 1292.8 ± 1
293.15 K, x1 = 0.2008 | 790.94 ± 0.36 | 1289 ± 1.1
293.15 K, x1 = 0.3039 | 816.25 ± 0.37 | 1286.6 ± 1.1
293.15 K, x1 = 0.3945 | 840.9 ± 0.38 | 1285.5 ± 1.1
293.15 K, x1 = 0.4983 | 872.42 ± 0.4 | 1285.7 ± 1.1
293.15 K, x1 = 0.6014 | 908.04 ± 0.41 | 1287.9 ± 1.1
293.15 K, x1 = 0.6987 | 945.78 ± 0.43 | 1292 ± 1.1
293.15 K, x1 = 0.7975 | 989.35 ± 0.45 | 1298.8 ± 1.1
293.15 K, x1 = 0.9021 | 1042.45 ± 0.48 | 1309.5 ± 1.1
293.15 K, x1 = 0.9497 | 1069.46 ± 0.5 | 1315.8 ± 1.1
293.15 K, x1 = 1 | 1100.16 ± 0.51 | 1323.2 ± 1.1
298.15 K, x1 = 0.05237 | 755.23 ± 0.34 | 1275.6 ± 1
298.15 K, x1 = 0.1014 | 765.22 ± 0.35 | 1273.5 ± 1
298.15 K, x1 = 0.2008 | 787.14 ± 0.36 | 1269.8 ± 1.1
298.15 K, x1 = 0.3039 | 812.33 ± 0.37 | 1267.5 ± 1.1
298.15 K, x1 = 0.3945 | 836.86 ± 0.38 | 1266.6 ± 1.1
298.15 K, x1 = 0.4983 | 868.24 ± 0.39 | 1267 ± 1.1
298.15 K, x1 = 0.6014 | 903.71 ± 0.41 | 1269.3 ± 1.1
298.15 K, x1 = 0.6987 | 941.31 ± 0.43 | 1273.7 ± 1.1
298.15 K, x1 = 0.7975 | 984.72 ± 0.45 | 1280.7 ± 1.1
298.15 K, x1 = 0.9021 | 1037.61 ± 0.48 | 1291.6 ± 1.1
298.15 K, x1 = 0.9497 | 1064.51 ± 0.5 | 1298 ± 1.1
298.15 K, x1 = 1 | 1095.11 ± 0.51 | 1305.4 ± 1.1
303.15 K, x1 = 0.05237 | 751.58 ± 0.34 | 1256.4 ± 1
303.15 K, x1 = 0.1014 | 761.51 ± 0.35 | 1254.2 ± 1
303.15 K, x1 = 0.2008 | 783.32 ± 0.36 | 1250.7 ± 1
303.15 K, x1 = 0.3039 | 808.4 ± 0.37 | 1248.6 ± 1.1
303.15 K, x1 = 0.3945 | 832.82 ± 0.38 | 1247.8 ± 1.1
303.15 K, x1 = 0.4983 | 864.07 ± 0.39 | 1248.4 ± 1.1
303.15 K, x1 = 0.6014 | 899.38 ± 0.41 | 1250.9 ± 1.1
303.15 K, x1 = 0.6987 | 936.82 ± 0.43 | 1255.4 ± 1.1
303.15 K, x1 = 0.7975 | 980.06 ± 0.45 | 1262.6 ± 1.1
303.15 K, x1 = 0.9021 | 1032.76 ± 0.48 | 1273.8 ± 1.1
303.15 K, x1 = 0.9497 | 1059.56 ± 0.49 | 1280.3 ± 1.1
303.15 K, x1 = 1 | 1090.07 ± 0.51 | 1287.9 ± 1.1
308.15 K, x1 = 0.05237 | 747.91 ± 0.34 | 1237.3 ± 1
308.15 K, x1 = 0.1014 | 757.8 ± 0.35 | 1235.2 ± 1
308.15 K, x1 = 0.2008 | 779.49 ± 0.35 | 1231.8 ± 1
308.15 K, x1 = 0.3039 | 804.47 ± 0.37 | 1229.8 ± 1
308.15 K, x1 = 0.3945 | 828.76 ± 0.38 | 1229.2 ± 1.1
308.15 K, x1 = 0.4983 | 859.88 ± 0.39 | 1230 ± 1.1
308.15 K, x1 = 0.6014 | 895.05 ± 0.41 | 1232.7 ± 1.1
308.15 K, x1 = 0.6987 | 932.33 ± 0.43 | 1237.4 ± 1.1
308.15 K, x1 = 0.7975 | 975.41 ± 0.45 | 1244.8 ± 1.1
308.15 K, x1 = 0.9021 | 1027.91 ± 0.48 | 1256.1 ± 1.1
308.15 K, x1 = 0.9497 | 1054.61 ± 0.49 | 1262.7 ± 1.1
308.15 K, x1 = 1 | 1085.02 ± 0.51 | 1270.3 ± 1.1
313.15 K, x1 = 0.05237 | 744.24 ± 0.34 | 1218.4 ± 1
313.15 K, x1 = 0.1014 | 754.07 ± 0.34 | 1216.4 ± 1
313.15 K, x1 = 0.2008 | 775.66 ± 0.35 | 1213.2 ± 1
313.15 K, x1 = 0.3039 | 800.53 ± 0.36 | 1211.4 ± 1
313.15 K, x1 = 0.3945 | 824.71 ± 0.38 | 1210.9 ± 1.1
313.15 K, x1 = 0.4983 | 855.7 ± 0.39 | 1211.8 ± 1.1
313.15 K, x1 = 0.6014 | 890.7 ± 0.41 | 1214.6 ± 1.1
313.15 K, x1 = 0.6987 | 927.83 ± 0.42 | 1219.6 ± 1.1
313.15 K, x1 = 0.7975 | 970.74 ± 0.45 | 1227 ± 1.1
313.15 K, x1 = 0.9021 | 1023.05 ± 0.47 | 1238.5 ± 1.1
313.15 K, x1 = 0.9497 | 1049.66 ± 0.49 | 1245.2 ± 1.1
313.15 K, x1 = 1 | 1079.97 ± 0.5 | 1253 ± 1.1
318.15 K, x1 = 0.05237 | 740.56 ± 0.34 | 1199.7 ± 1
318.15 K, x1 = 0.1014 | 750.34 ± 0.34 | 1197.7 ± 1
318.15 K, x1 = 0.2008 | 771.82 ± 0.35 | 1194.6 ± 1
318.15 K, x1 = 0.3039 | 796.59 ± 0.36 | 1192.9 ± 1
318.15 K, x1 = 0.3945 | 820.64 ± 0.37 | 1192.5 ± 1
318.15 K, x1 = 0.4983 | 851.51 ± 0.39 | 1193.6 ± 1.1
318.15 K, x1 = 0.6014 | 886.36 ± 0.4 | 1196.7 ± 1.1
318.15 K, x1 = 0.6987 | 923.36 ± 0.42 | 1201.7 ± 1.1
318.15 K, x1 = 0.7975 | 966.1 ± 0.44 | 1209.5 ± 1.1
318.15 K, x1 = 0.9021 | 1018.21 ± 0.47 | 1221.1 ± 1.1
318.15 K, x1 = 0.9497 | 1044.74 ± 0.49 | 1227.9 ± 1.1
318.15 K, x1 = 1 | 1074.95 ± 0.5 | 1235.8 ± 1.1
323.15 K, x1 = 0.05237 | 736.88 ± 0.34 | 1181 ± 1
323.15 K, x1 = 0.1014 | 746.61 ± 0.34 | 1179.3 ± 1
323.15 K, x1 = 0.2008 | 767.98 ± 0.35 | 1176.2 ± 1
323.15 K, x1 = 0.3039 | 792.63 ± 0.36 | 1174.7 ± 1
323.15 K, x1 = 0.3945 | 816.57 ± 0.37 | 1174.4 ± 1
323.15 K, x1 = 0.4983 | 847.29 ± 0.39 | 1175.6 ± 1.1
323.15 K, x1 = 0.6014 | 882 ± 0.4 | 1178.8 ± 1.1
323.15 K, x1 = 0.6987 | 918.84 ± 0.42 | 1184.1 ± 1.1
323.15 K, x1 = 0.7975 | 961.42 ± 0.44 | 1191.9 ± 1.1
323.15 K, x1 = 0.9021 | 1013.35 ± 0.47 | 1203.8 ± 1.1
323.15 K, x1 = 0.9497 | 1039.77 ± 0.49 | 1210.6 ± 1.1
323.15 K, x1 = 1 | 1069.89 ± 0.5 | 1218.7 ± 1.1
328.15 K, x1 = 0.05237 | 733.17 ± 0.34 | 1162.7 ± 1
328.15 K, x1 = 0.1014 | 742.86 ± 0.34 | 1160.8 ± 1
328.15 K, x1 = 0.2008 | 764.14 ± 0.35 | 1157.9 ± 1
328.15 K, x1 = 0.3039 | 788.68 ± 0.36 | 1156.5 ± 1
328.15 K, x1 = 0.3945 | 812.52 ± 0.37 | 1156.4 ± 1
328.15 K, x1 = 0.4983 | 843.12 ± 0.39 | 1157.7 ± 1
328.15 K, x1 = 0.6014 | 877.69 ± 0.4 | 1161.2 ± 1.1
328.15 K, x1 = 0.6987 | 914.4 ± 0.42 | 1166.5 ± 1.1
328.15 K, x1 = 0.7975 | 956.8 ± 0.44 | 1174.5 ± 1.1
328.15 K, x1 = 0.9021 | 1008.57 ± 0.47 | 1186.6 ± 1.1
328.15 K, x1 = 0.9497 | 1034.9 ± 0.48 | 1193.5 ± 1.1
328.15 K, x1 = 1 | 1064.93 ± 0.5 | 1201.6 ± 1.1
